Several values for one entry are separate records, joined by “and”; a condition that tells them apart may be missing. Identical values can stand only once. Like-named read-outs stand apart in the source and are kept apart here.
What was measured:
[1] = no reference given, cited from earlier work
[2] = set-up: method as in Qin et al., 2023; settings: ref Qin et al., 2023, cited from earlier work
[3] = Population pharmacokinetic (PopPK) model of SAF-189s plasma concentrations (NONMEM); assay type: in vivo, human
Method: The population PK analysis included data from one phase I study of SAF-189s conducted with healthy subjects (study STL31147; n = 24) and one phase I/II study conducted with Chinese patients having ALK+/ROS1+ advanced NSCLC (study SAF001; n = 299). STL31147 was a single-center, randomized, open-label, two-period (fed and fasting), and two-sequence crossover study on healthy Chinese adults. The volunteers received SAF-189s at a dose of 160 mg orally once in each period, with a washout period of 14 days. Blood samples (3 mL) were collected after each SAF-189s administration at 0 (predose), 1, 2, 3, 4, 6, 8, 10, 12, 24, 48, 72, 120, and 168 h post dosing. SAF001 was a multicenter, open-label, and single-arm phase I/II study to evaluate the safety, tolerability, pharmacokinetics, and antitumor activity of SAF-189s in patients with advanced ALK+ NSCLC (phase I) and ALK+/ROS1+ NSCLC (phase II). In the dose escalation portion, the study treatment included a single-agent 3-day PK run-in period and a continuous treatment period. The dosing regimens were 20, 40, 80, 120, 160, and 210 mg QD for 21 days in 21-day cycles during the continuous treatment period. In phase II, the patients received 80, 120, 160, and 210 mg of SAF-189s (phase IIa) or 160 mg (phase IIb) QD over 21-day cycles.
All studies were conducted in accordance with the Good Clinical Practice guidelines and Declaration of Helsinki. The protocols were approved by the independent ethics committee of each investigation site, and all subjects provided informed consent. The tumor responses were assessed by the IRC based on the Response Evaluation Criteria in Solid Tumors (RECIST) 1.1 conditions. The exposure–efficacy analyses of SAF-189s were conducted based on data from patients in the SAF001 study to explore the relationships between systemic exposure and efficacy endpoints, including the ORR, PFS, and duration of response (DOR). The exposure–safety analyses of SAF-189s were conducted based on data from patients in the SAF001 study to explore the relationships between the systemic exposure and safety endpoints, including the adverse events (AEs) of interest. In these studies, the SAF-189s plasma concentrations were analyzed using validated liquid chromatography tandem mass spectrometry within the assay range of 0.5–150 ng mL^–1.
Dataset preparation and exploratory graphical analyses were performed using R (version 4.2.0) and SAS® (version 9.4, Institute Inc., Cary, NC, United States). The PK data of SAF-189s were pooled and analyzed using a non-linear mixed-effects model. The PopPK analysis was conducted using NONMEM® software (version 7.3, ICON, Hanover, MD, United States) with first-order conditional estimations with interactions (FOCE-I). Following graphical exploratory analysis, one- and two-compartment models were evaluated; several absorption models were then tested, including first-order, zero-order, sequential zero- and first-order, and parallel first-order models with and without a lag absorption time; based on the characteristics of the elimination phase of the concentration–time profiles of SAF-189s, the linear, non-linear, and time-dependent elimination models ([Lau et al., 2019]; [Kratochwil et al., 2021]) were investigated. Interindividual variance (IIV) was then described as a log-normal distribution, and the covariance between the IIV parameters was assessed. Residual variability was assessed by comparing the proportional, additive, and combined error models. Owing to the low proportion (<1%) of post-administration samples with concentrations below the quantification limit (BQL) of the assay, the BQL data were excluded from the PopPK model development. Model selection was based on the objective function value (OFV), goodness-of-fit (GOF) plot, and robustness of parameter estimates. The ETA shrinkage was also taken into consideration when evaluating the models.
The covariates were prespecified based on their physiological and clinical relevance. […]

[4] = high-fat meal vs fasted, single dose 160 mg
[5] = single dose 160 mg, unaffected by food
[6] = 5th percentile age (25 years) vs median age (53 years)
[7] = 95th percentile age (71 years) vs median age (53 years)
[8] = ALKPOT 2 or 3 or 4 vs reference 1
[9] = ALKPOT 6 (healthy) vs reference 1
[10] = age 25 year vs reference 53 year, Figure 4
[11] = age 71 year vs reference 53 year, Figure 4

Cc1cc(Nc2ncc(Cl)c(Nc3ccccc3S(=O)(=O)C(C)C)n2)c2c(c1C1CCN(C)CC1)C[C@@H](C)O2 [SAF-189s]
permeability ([1]; BCS classification): low permeability
solubility ([1]; BCS classification): low solubility
BCS class [1]: BCS IV
intersubject variability AUC0-t ([2]; fasted): 33.8%
intersubject variability AUC0-∞ ([2]; fasted): 34.6%
intersubject variability Cmax ([2]; fasted): 23.0%
intersubject variability AUC0-t ([2]; fed): 31.3%
intersubject variability AUC0-∞ ([2]; fed): 32.8%
intersubject variability Cmax ([2]; fed): 19.7%
geometric mean ratio AUC0-t [2, 4]: 105.1%
geometric mean ratio Cmax [2, 4]: 109.1%
Tmax (median) [2, 5]: 6 h
t½ (mean) [2, 5]: around 35 h
AUCss geometric mean ([3]; 160 mg QD dose): 2,374 ng∙h mL^–1
AUC decrease [3, 6]: 21%
CL/F increase [3, 6]: 27%
AUC increase [3, 7]: 10%
CL/F decrease [3, 7]: 8.8%
AUCss(ug*h/L) Ratio [3, 8]: 1.18
V/F(L) Ratio [3, 8]: 0.734
AUCss(ug*h/L) Ratio ([3]; ALKPOT 5 (ROS1) vs reference 1): 1.06
V/F(L) Ratio ([3]; ALKPOT 5 (ROS1) vs reference 1): 0.917
AUCss(ug*h/L) Ratio [3, 9]: 0.979
V/F(L) Ratio [3, 9]: 0.784
AUCss higher ([3]; ALKPOT = 2, 3, 4 compared to ALKPOT = 1): 18%
V/F reduction ([3]; ALKPOT = 2, 3, 4 relative to ALKPOT = 1): 26.6%
AUCss higher ([3]; ALKPOT = 5 compared to ALKPOT = 1): 6%
V/F reduction ([3]; ALKPOT = 5 relative to ALKPOT = 1): 8.3%
V/F reduction ([3]; ALKPOT = 6 (healthy subjects) relative to ALKPOT = 1): 21.6%
AUCss lower ([3]; ALKPOT = 6 compared to ALKPOT = 1): 2.1%
effect of prior anticancer therapy on AUCss ([3]; ALKPOT covariate): less than 20%
half-life ([3]; after the first dose, typical subjects (median age 53 years, ALK+ without previous ALK inhibitor treatment)): 34.6 h
AUCss(ug*h/L) Ratio [3, 10]: 0.79
CL/F(L/h) Ratio [3, 10]: 1.27
AUCss(ug*h/L) Ratio [3, 11]: 1.1
CL/F(L/h) Ratio [3, 11]: 0.912
AUCss median value ([3]; exposure–safety analysis, all patients): 2,233 ng∙h mL^–1
ALAG1 (tlag) typical value ([3]; final PopPK model estimate): 0.483 (±0.0306) h and 0.483 h
CL1/F typical value ([3]; final PopPK model estimate): 64 (±1.51) L h^–1 and 64 L h^–1
CL2/F typical value ([3]; final PopPK model estimate): 40.3 (±6.89) L h^–1 and 40.3 L h^–1
KA typical value ([3]; final PopPK model estimate): 0.501 (±0.0444) h^−1
V/F typical value ([3]; final PopPK model estimate): 5,210(±339) L and 5,210 L
KA typical value ([3]; final PopPK model estimate, Table 2): 0.501 L h^–1
Interindividual variability ω^2 ALAG1 ([3]; final model estimate): 0.12
Interindividual variability ω^2 CL ([3]; final model estimate): 0.138
Interindividual variability ω^2 KA ([3]; final model estimate): 0.279
Interindividual variability ω^2 V ([3]; final model estimate): 0.125
ALKPOT = 6 on V/F ([3]; healthy subjects, final model estimate): 0.784
ALAG1 bootstrap estimate ([3]; non-parametric bootstrap): 0.491 h
ALKPOT = 2,3,4 on V/F bootstrap estimate ([3]; non-parametric bootstrap): 0.724
ALKPOT = 5 on V/F bootstrap estimate ([3]; non-parametric bootstrap): 0.905
ALKPOT = 6 on V/F bootstrap estimate ([3]; non-parametric bootstrap): 0.782
CL1/F bootstrap estimate ([3]; non-parametric bootstrap): 64 L h^–1
CL2/F bootstrap estimate ([3]; non-parametric bootstrap): 40.5 L h^–1
Interindividual variability ω^2 ALAG1 bootstrap estimate ([3]; non-parametric bootstrap): 0.106
Interindividual variability ω^2 CL bootstrap estimate ([3]; non-parametric bootstrap): 0.138
Interindividual variability ω^2 KA bootstrap estimate ([3]; non-parametric bootstrap): 0.276
Interindividual variability ω^2 V bootstrap estimate ([3]; non-parametric bootstrap): 0.121
KA bootstrap estimate ([3]; non-parametric bootstrap): 0.504 L h^–1
Kout bootstrap estimate ([3]; non-parametric bootstrap): 1.35 day⁻¹
V/F bootstrap estimate ([3]; non-parametric bootstrap): 5,199 L
ALKPOT = 5 on V/F ([3]; others (ROS1+ patients or unknown), final model estimate): 0.917
ALKPOT = 2,3,4 on V/F ([3]; patients with previous ALK inhibitor treatment, final model estimate): 0.734
Cmin,ss ([3]; quartile 1, estimated using the most prevalent dose): 18–60.7 ng mL^–1
Cmin,ss ([3]; quartile 2, estimated using the most prevalent dose): 60.7–79 ng mL^–1
Cmin,ss ([3]; quartile 3, estimated using the most prevalent dose): 79–108 ng mL^–1
Cmin,ss ([3]; quartile 4, estimated using the most prevalent dose): 108–182 ng mL^–1
half-life ([3]; steady state after multiple administrations, typical subjects): approximately 56.4 h
Kout ([3]; time-varying inhibition rate constant): 1.35 (±0.421) day^−1
Kout typical value ([3]; time-varying inhibition rate constant, Table 2): 1.35 day⁻¹
